Reference: patent US20200093929A1, “PHARMACEUTICAL COMPOSITION FOR THE PREVENTION AND TREATMENT OF MEMORY AND COGNITIVE DEFICITS RELATED TO AGEING” (IGEA PHARMA N.V., priority 2017, published 2020)
Marks after values point to notes of the source that are not given here.

Legend:
[1] = system: N2a (ECACC) mouse neuroblastoma cells; assay: Cell viability by MTT reduction test in N2a cells, with and without Aβ1-42 prefibrillar aggregates; assay type: cell-based; conditions: for Comparison of the results among glycated oleuropein, oleuropein aglycone and hydroxytyrosol: Example 1 cell experiments; for Comparison of the results among the glutathione thioesters used (cell viability, mTOR P, ACi): micromolar levels, with and without Aβ1-42 aggregates
Protocol: (§1) N2a (ECACC) mouse neuroblastoma cells, plated in the presence of MEM integrated with non-essential amino acids, 10% FCS, antibiotics and glutamine, were exposed for 48 h to micromolar levels of oleuropein aglycone and/or glutathione thioesters (GST), in the presence and in the absence of prefibrillar aggregates of Aβ1-42 peptides (Lambert M, et al. J. Neurochem. 2001, 79:595-605). […] In the control plates (CTRL) the cells were incubated under the same conditions in the presence of the culture medium alone. The following were then evaluated: • the state of cell viability through the MTT reduction test (Pensalfini A et al., Free
(§2) Rad Biol Med 2008, 44: 1624-1636). • the level of mTOR substrate phosphorylation of kinase p70 S6 (mTOR P) by western blot analysis and subsequent densitometry (Grossi C, et al., PLoS ONE 2013, 8: e71702) • the level of intracellular antioxidant capacity (ACi) through hydrosolublescavenger doses in the cellular lysates in chemiluminescence, using • the Pholasin photoprotein (ABEL Antioxidant Test Kit, Knight Scientific Ltd., UK) as reported in Cecchi C., et al. Neurobiol. Aging 28: 863-876, 2007.
(§3) ACi values were correct for the % of viable cells. AP=toxic prefibrillar aggregates.

[2] = as above; assay type: cell-based, mouse; conditions: mouse, N2a (ECACC) neuroblastoma cells; read-out: Cell viability (MTT test), % respect to controls
Protocol: as §1, §2, §3

[3] = system: mTOR; assay: mTOR substrate phosphorylation of kinase p70 S6 (mTOR P), western blot and densitometry, N2a cells; assay type: cell-based, mouse; conditions: 48 h
Protocol: as §1, §2, §3

[4] = system: N2a (ECACC) mouse neuroblastoma cells; assay: Intracellular antioxidant capacity (ACi) in cell lysates, Pholasin chemiluminescence, N2a cells; assay type: cell-based; conditions: 48 h, corrected for % viable cells, CTRL 2.60
Protocol: as §1, §2, §3

[5] = in the presence of Aβ42 AP 3 μM (OLE 2 µM; GST 3 µM)
[6] = substance(s) alone, no Aβ42 AP added (Aβ42 AP 3 μM; OLE 2 µM; GST 3 µM)

Row | Structure (SMILES) | Comparison of the results among glycated oleuropein, oleuropein aglycone and hydroxytyrosol [1] | Comparison of the results among the glutathione thioesters used (cell viability, mTOR P, ACi) ([1]; N2a cells, 48 h) | other results
1 | C/C=C1/C(O)OC=C(C(=O)OC)[C@H]1CC(=O)OCCc1ccc(O)c(O)c1 (mixture of isomers) [OLE, oleuropein aglycone] | No significant differences | – | Cell viability (MTT test), % respect to controls ([1]; N2a cells, 48 h, in the presence of Aβ42 AP 3 μM (OLE 2 µM; GST 3 µM)): 65* %; viability at 48 h, 2 µM [2]: 98%; mTOR P, % respect to controls [3, 5]: 69%; mTOR P, % respect to controls [3, 6]: 12* %; ACi, mmol/L GSH Equivalent [4, 5]: 1.55* mmol/L GSH Equivalent; ACi, mmol/L GSH Equivalent [4, 6]: 2.68 mmol/L GSH Equivalent
2 | CC/C=C\C/C=C\C/C=C\CCCCCCCC(=O)SCC(NC(=O)CCC(N)C(=O)O)C(=O)NCC(=O)O (stereo not drawn) [S-linolenoyl-glutathione] | – | equivalent results | –
3 | CCCCCCCC/C=C\CCCCCCCCSC[C@H](NC(=O)CC[C@H](N)C(=O)O)C(=O)NCC(=O)O [S-oleyl-glutathione] | – | equivalent results | –
4 | C/C=C1/[C@H](O[C@@H]2O[C@H](CO)[C@@H](O)[C@H](O)[C@H]2O)OC=C(C(=O)OC)[C@H]1CC(=O)OCCc1ccc(O)c(O)c1 [glycated oleuropein, oleuropein] | No significant differences | – | –
5 | CCCCC/C=C\C/C=C\CCCCCCCCSC[C@H](NC(=O)CC[C@H](N)C(=O)O)C(=O)NCC(=O)O [S-linoleyl-glutathione] | – | equivalent results | –
6 | CC/C=C\C/C=C\C/C=C\C/C=C\C/C=C\C/C=C\CCC(=O)SC[C@H](NC(=O)CC[C@H](N)C(=O)O)C(=O)NCC(=O)O [S-docohexaenoyl-glutathione] | – | equivalent results | –
